Test results reported in patent publication US20220317132A1, “USE OF ENDOTHELIN RECEPTOR INHIBITOR FOR INHIBITING EXOSOME SECRETION OR INHIBITING PD-L1 EXPRESSION” (KYUNGPOOK NATIONAL UNIVERSITY INDUSTRY-ACADEMIC COOPERATION …, priority 2019, published 2022).

Test system: MDA-MB231 cells
Assay: Cytotoxic effect (MTT analysis)
Conditions: 24 hours, sulfisoxazole 100 μM, ambrisentan 1, 10, 100 μM, macitentan 100, 1000 nM, bosentan 10, 50 μM, FIG. 1
Method: MCF10A cells were cultured in Mammary epithelial cell growth medium (MEGM, Lonza) added with 5% fetal bovine serum, 1% antibiotics, 52 μg/ml bovine pituitary extract, 0.5 μg/ml hydrocortisone, 10 ng/ml EGF, and 5 μg/ml insulin. MDA-MB231 and MCF7 cells were cultured in Dulbecco's modified Eagle's medium (DMEM, Hyclone) added with 10% fetal bovine serum and 1% antibiotics.
MDA-MB231 cells were seeded at 1×10^5/well in a 24-well plate, and then cultured for 24 hours to allow time for cell stabilization. After culturing for 24 hours, the cells were treated with 100 μM of sulfisoxazole, 1, 10, and 100 μM of ambrisentan, 100 and 1000 nM of macitentan, and 10 and 50 μM of bosentan and cultured for 24 hours. Then, after treatment with MTT tetrazolium reagent, the cells were cultured for 4 hours. After 4 hours, reduced MTT formazan (3-(4,5-dimethylthiazol-2-yl)-2,5 diphenyl-tetrazolium bromide) was measured at 595 nm absorbance to confirm cell proliferation effects.

SMILES: COc1ccccc1Oc1c(NS(=O)(=O)c2ccc(C(C)(C)C)cc2)nc(-c2ncccn2)nc1OCCO [bosentan]
- cytotoxicity (MTT, absorbance 595 nm): no cytotoxicity

SMILES: Cc1noc(NS(=O)(=O)c2ccc(N)cc2)c1C [sulfisoxazole]
- cytotoxicity (MTT, absorbance 595 nm): no cytotoxicity
